Experimental data published in US20120157379A1, “Gastric Inhibitory Peptide Variants and Their Uses” (priority 2009, published 2012).

T1: GIP receptor (GIPR) (Homo sapiens, UniProt P48546)
T1 construct: host or cells: HEK293T
T1 sequence (P48546 22-466): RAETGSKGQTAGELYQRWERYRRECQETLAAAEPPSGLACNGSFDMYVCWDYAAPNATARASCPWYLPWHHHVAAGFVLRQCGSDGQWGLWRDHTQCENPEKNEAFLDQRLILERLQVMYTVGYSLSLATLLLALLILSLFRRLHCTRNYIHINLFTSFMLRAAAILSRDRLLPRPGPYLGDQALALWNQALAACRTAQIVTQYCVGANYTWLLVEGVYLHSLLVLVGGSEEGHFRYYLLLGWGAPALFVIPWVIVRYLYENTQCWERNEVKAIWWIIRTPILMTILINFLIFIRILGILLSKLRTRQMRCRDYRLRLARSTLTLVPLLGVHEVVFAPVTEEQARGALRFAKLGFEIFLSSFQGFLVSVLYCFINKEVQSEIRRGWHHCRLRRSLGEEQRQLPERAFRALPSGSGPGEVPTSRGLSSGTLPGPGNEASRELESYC

T2: recombinant wild type GIP receptor (GIPR) expressed in HEK293T cells (Homo sapiens (Human), UniProt P48546)
T2 sequence: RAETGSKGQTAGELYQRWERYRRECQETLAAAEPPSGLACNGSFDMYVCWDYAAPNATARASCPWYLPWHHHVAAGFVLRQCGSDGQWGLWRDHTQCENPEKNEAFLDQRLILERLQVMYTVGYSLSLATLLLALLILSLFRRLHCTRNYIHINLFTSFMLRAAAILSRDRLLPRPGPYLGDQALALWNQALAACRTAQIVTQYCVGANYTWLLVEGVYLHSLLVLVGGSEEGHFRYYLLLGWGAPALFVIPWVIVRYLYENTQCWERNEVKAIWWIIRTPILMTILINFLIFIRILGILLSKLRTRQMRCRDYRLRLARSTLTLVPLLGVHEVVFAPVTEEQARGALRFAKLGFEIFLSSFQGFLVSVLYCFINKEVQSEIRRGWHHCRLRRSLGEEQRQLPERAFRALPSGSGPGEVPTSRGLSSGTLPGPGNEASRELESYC


What was measured:
[1] = Resistance to serum degradation: peptides incubated with human serum at 37 C, then tested for receptor activation; conditions: pooled normal human serum or pooled complement-preserved human serum, in vitro
Procedure: (§1) Vector, transfection, and receptor-activation assay. […] The treated peptides were frozen at −80 C before testing with transfected cells. Receptor-activation activities were assayed based on cAMP production in transfected cells, and were performed as described44. The receptor-activation results were analyzed using the GraphPad Prism 5 package.

[2] = system: fasting Sprague-Dawley rats; experiment: In vivo glucose suppression assay; design: species or system rat; conditions: for blood glucose after exogenous glucose: 100 nmoles/kg peptide with glucose 3.8 g/kg intraperitoneal, 1 hr after injection
Procedure: The in vivo glucose suppression assay. Eight-week-old Sprague-Dawley rats were fasted overnight for 20 hours. […] Bloods were obtained via the tail vein at select time points after intraperitoneal injection of glucose with a peptide. Glucose levels in the blood were measured by an OneTouch Ultra Blood Glucose Monitoring System and OneTouch Ultra Test Strips (Johnson and Johnson).

[3] = biological target: T1, GIP receptor (GIPR); experiment: Receptor-activation assay: cAMP production in HEK293T cells expressing recombinant GIP receptor; type: cell-based; conditions: for EC50: EC50 values (-Log EC50, mean ± SEM)
Procedure: as §1

[4] = biological target: T2, recombinant wild type GIP receptor …; experiment: cell-based or functional assay
[5] = biological target: T2, recombinant wild type GIP receptor …; experiment: cell-based or functional assay; remark: listed apart in the source

Row | Molecule | resistance to degradation by human serum, relative to GIP [1] | blood glucose after exogenous glucose [2] | EC50 of cAMP production in GIPR-expressing HEK293T cells [4] [nM] | -Log EC50 of cAMP production; peptide incubated 0 hr with pooled complement preserved human serum [5] | -Log EC50 of cAMP production; peptide incubated 0 hr with pooled human serum [5] | -Log EC50 of cAMP production; peptide incubated 3 hr with pooled complement preserved human serum [5] | -Log EC50 of cAMP production; peptide incubated 3 hr with pooled human serum [5] | -Log EC50 of cAMP production; peptide incubated 6 hr with pooled complement preserved human serum [5] | -Log EC50 of cAMP production; peptide incubated 6 hr with pooled human serum [5] | -Log EC50 of cAMP production; peptide incubated 12 hr with pooled complement preserved human serum [5] | -Log EC50 of cAMP production; peptide incubated 12 hr with pooled human serum [5] | other results
1 | CC[C@H](C)[C@H](NC(=O)[C@H](CO)NC(=O)[C@H](Cc1ccc(O)cc1)NC(=O)[C@H](CC(=O)O)NC(=O)[C@H](CO)NC(=O)[C@@H](NC(=O)[C@H](Cc1ccccc1)NC(=O)[C@@H](NC(=O)CNC(=O)[C@H](CCC(=O)O)NC(=O)[C@H](C)NC(=O)[C@@H](N)Cc1ccc(O)cc1)[C@@H](C)O)[C@@H](C)CC)C(=O)N[C@@H](C)C(=O)N[C@@H](CCSC)C(=O)N[C@@H](CC(=O)O)C(=O)N[C@@H](CCCCN)C(=O)N[C@H](C(=O)N[C@@H](Cc1c[nH]cn1)C(=O)N[C@@H](CCC(N)=O)C(=O)N[C@@H](CCC(N)=O)C(=O)N[C@@H](CC(=O)O)C(=O)N[C@@H](Cc1ccccc1)C(=O)N[C@H](C(=O)N[C@@H](CC(N)=O)C(=O)N[C@@H](Cc1c[nH]c2ccccc12)C(=O)N[C@@H](CC(C)C)C(=O)N[C@@H](CC(C)C)C(=O)N[C@@H](C)C(=O)N[C@@H](CCC(N)=O)C(=O)N[C@@H](CCCCN)C(=O)NCC(=O)N[C@@H](CCCCN)C(=O)N[C@@H](CCCCN)C(=O)N[C@@H](CC(N)=O)C(=O)N[C@@H](CC(=O)O)C(=O)N[C@@H](Cc1c[nH]c2ccccc12)C(=O)N[C@@H](CCCCN)C(=O)N[C@@H](Cc1c[nH]cn1)C(=O)N[C@@H](CC(N)=O)C(=O)N[C@H](C(=O)N[C@H](C(=O)N[C@@H](CCC(N)=O)C(=O)N[C@@H](CCCNC(=N)N)C(=O)N[C@@H](CCC(=O)O)C(=O)N[C@@H](C)C(=O)N[C@@H](CCCNC(=N)N)C(=O)N[C@@H](C)C(=O)N[C@@H](CC(C)C)C(=O)N[C@@H](CCC(=O)O)C(=O)N[C@@H](CC(C)C)C(=O)N[C@@H](C)C(=O)NCC(=O)N[C@@H](CCC(N)=O)C(=O)N[C@@H](C)C(=O)N[C@@H](CC(N)=O)C(=O)O)[C@@H](C)O)[C@@H](C)CC)C(C)C)[C@@H](C)CC [GIP55G] | significantly more resistant to degradation | – | – | – | – | – | – | – | – | – | – | –
2 | CC[C@H](C)[C@H](NC(=O)[C@H](CO)NC(=O)[C@H](Cc1ccc(O)cc1)NC(=O)[C@H](CC(=O)O)NC(=O)[C@H](CO)NC(=O)[C@@H](NC(=O)[C@H](Cc1ccccc1)NC(=O)[C@@H](NC(=O)CNC(=O)[C@H](CCC(=O)O)NC(=O)[C@H](C)NC(=O)[C@@H](N)Cc1ccc(O)cc1)[C@@H](C)O)[C@@H](C)CC)C(=O)N[C@@H](C)C(=O)N[C@@H](CCSC)C(=O)N[C@@H](CC(=O)O)C(=O)N[C@@H](CCCCN)C(=O)N[C@H](C(=O)N[C@@H](Cc1c[nH]cn1)C(=O)N[C@@H](CCC(N)=O)C(=O)N[C@@H](CCC(N)=O)C(=O)N[C@@H](CC(=O)O)C(=O)N[C@@H](Cc1ccccc1)C(=O)N[C@H](C(=O)N[C@@H](CC(N)=O)C(=O)N[C@@H](Cc1c[nH]c2ccccc12)C(=O)N[C@@H](CC(C)C)C(=O)N[C@@H](CC(C)C)C(=O)N[C@@H](C)C(=O)N[C@@H](CCC(N)=O)C(=O)N[C@@H](CCCCN)C(=O)NCC(=O)N[C@@H](CCCCN)C(=O)N[C@@H](CCCCN)C(=O)N[C@@H](CC(N)=O)C(=O)N[C@@H](CC(=O)O)C(=O)N[C@@H](Cc1c[nH]c2ccccc12)C(=O)N[C@@H](CCCCN)C(=O)N[C@@H](Cc1c[nH]cn1)C(=O)N[C@@H](CC(N)=O)C(=O)N[C@H](C(=O)N[C@H](C(=O)N[C@@H](CCC(N)=O)C(=O)N[C@@H](CCCNC(=N)N)C(=O)N[C@@H](CCC(=O)O)C(=O)N[C@@H](C)C(=O)N[C@@H](CCCNC(=N)N)C(=O)N[C@@H](C)C(=O)N[C@@H](CC(C)C)C(=O)N[C@@H](CCC(=O)O)C(=O)N[C@@H](CC(C)C)C(=O)N[C@@H](C)C(=O)N[C@@H](CO)C(=O)N[C@@H](CCC(N)=O)C(=O)N[C@@H](C)C(=O)N[C@@H](CC(N)=O)C(=O)O)[C@@H](C)O)[C@@H](C)CC)C(C)C)[C@@H](C)CC [GIP55S] | significantly more resistant to degradation | reduced glucose contents in the blood to basal levels | – | – | – | – | – | – | – | – | – | suppression of hyperglycemia ([2]; compared with conventional mature GIP): suppress hyperglycemias to similar extents; ranking of potency ([3]; 0 hr of human serum treatment (normal or complement preserved)): GIP>GIP55G>GIP55S; ranking of potency ([3]; 6 hr after treatment with human serum (normal or complement preserved)): GIP=GIP55G=GIP55S; ranking of potency ([3]; 12 hr after treatment with human serum (normal or complement preserved)): GIP55G>GIP55S≧GIP; lower potency relative to conventional GIP ([3]; EC50 compared with GIP, no serum treatment): ~3 fold; EC50 ([3]; with pooled complement preserved human serum, 0 hours of incubation): 3.72 nM; EC50 ([3]; with pooled complement preserved human serum, 3 hours of incubation): 3.24 nM; EC50 ([3]; with pooled complement preserved human serum, 6 hours of incubation): 16.2 nM; EC50 ([3]; with pooled complement preserved human serum, 12 hours of incubation): 75.9 nM; EC50 ([3]; with pooled human serum, 0 hours of incubation): 2.75 nM; EC50 ([3]; with pooled human serum, 3 hours of incubation): 4.57 nM; EC50 ([3]; with pooled human serum, 6 hours of incubation): 18.2 nM; EC50 ([3]; with pooled human serum, 12 hours of incubation): 41.7 nM; cAMP production in GIP receptor-expressing HEK293T cells ([3]; cells treated with synthetic peptides for 12 hr, total cAMP in cell lysates): dose-dependent increases of cAMP production
3 | CC[C@H](C)[C@H](NC(=O)[C@H](CO)NC(=O)[C@H](Cc1ccc(O)cc1)NC(=O)[C@H](CC(=O)O)NC(=O)[C@H](CO)NC(=O)[C@@H](NC(=O)[C@H](Cc1ccccc1)NC(=O)[C@@H](NC(=O)CNC(=O)[C@H](CCC(=O)O)NC(=O)[C@H](C)NC(=O)[C@@H](N)Cc1ccc(O)cc1)[C@@H](C)O)[C@@H](C)CC)C(=O)N[C@@H](C)C(=O)N[C@@H](CCSC)C(=O)N[C@@H](CC(=O)O)C(=O)N[C@@H](CCCCN)C(=O)N[C@H](C(=O)N[C@@H](Cc1c[nH]cn1)C(=O)N[C@@H](CCC(N)=O)C(=O)N[C@@H](CCC(N)=O)C(=O)N[C@@H](CC(=O)O)C(=O)N[C@@H](Cc1ccccc1)C(=O)N[C@H](C(=O)N[C@@H](CC(N)=O)C(=O)N[C@@H](Cc1c[nH]c2ccccc12)C(=O)N[C@@H](CC(C)C)C(=O)N[C@@H](CC(C)C)C(=O)N[C@@H](C)C(=O)N[C@@H](CCC(N)=O)C(=O)N[C@@H](CCCCN)C(=O)NCC(=O)N[C@@H](CCCCN)C(=O)N[C@@H](CCCCN)C(=O)N[C@@H](CC(N)=O)C(=O)N[C@@H](CC(=O)O)C(=O)N[C@@H](Cc1c[nH]c2ccccc12)C(=O)N[C@@H](CCCCN)C(=O)N[C@@H](Cc1c[nH]cn1)C(=O)N[C@@H](CC(N)=O)C(=O)N[C@H](C(=O)N[C@H](C(=O)N[C@@H](CCC(N)=O)C(=O)O)[C@@H](C)O)[C@@H](C)CC)C(C)C)[C@@H](C)CC [GIP, Gastric inhibitory polypeptide, reference compound] | – | reduced glucose contents in the blood to basal levels | – | – | – | – | – | – | – | – | – | –
4 | GIP55G, extended 55-amino-acid GIP isoform encoded by the derived G-44394131 allele (G103) (ligand) peptide: YAEGTFISDYSIAMDKIHQQDFVNWLLAQKGKKNDWKHNITQREARALELAGQAN | – | – | 3.2 | 8.51 -Log EC50 | 8.47 -Log EC50 | 8.22 -Log EC50 | 8.32 -Log EC50 | 7.88 -Log EC50 | 8.02 -Log EC50 | 7.86 -Log EC50 | 7.93 -Log EC50 | –
5 | GIP55S, extended 55-amino-acid GIP isoform encoded by the ancestral A-44394131 allele (S103) (ligand) peptide: YAEGTFISDYSIAMDKIHQQDFVNWLLAQKGKKNDWKHNITQREARALELASQAN | – | – | 2.6 | 8.43 -Log EC50 | 8.56 -Log EC50 | 8.49 -Log EC50 | 8.34 -Log EC50 | 7.79 -Log EC50 | 7.74 -Log EC50 | 7.12 -Log EC50 | 7.38 -Log EC50 | –
